Key:
[1] = test system: HEK-293 (human embryonic kidney) cells; assay: Cell viability, healthy HEK-293 cells; assay type: cell-based; settings: 3 h
[2] = test system: B16F10 cells; assay: Mitochondrial staining (MitoTracker Red CMXRos), B16F10 cells; assay type: cell-based, murine; settings: 50 µM
Procedure: Figure 2 Psd1 promotes B16F10 live cell membrane permeabilization as monitored by SYTOX Green fluorescence. (A) Psd1 untreated and hydrogen peroxide-treated B16F10 cells. (B) A total of 1.5 × 10^4 B16F10 cells were incubated with 3 or 50 µM Psd1 for 30 min. (C) 1.5 × 10^4 B16F10 cells were incubated with 50 µM Psd1 for 1 h. All experiments were performed at 37 °C. Nucleus staining is shown in green (SYTOXGreen), and mitochondria are shown in red (MitoTracker Red CMXRos). Images are shown at 20× magnification. […] (E) Psd1 induces apoptosis in B16F10 cells. B16F10 cells were treated with 50 µM Psd1 for 24 h and labeled with propidium iodide, and the DNA content was analyzed by flow cytometry for the sub-G0/G1 profile. […]
Figure 3 Fluorescein isothiocyanate (FITC)-Psd1 was localized in the B16F10 live cell nucleus. […] (C) The mean fluorescence intensity (MIF) of MitoTracker and FITC-Psd1 labeled cells measured over time. […]
Images were obtained in the X, Y, and Z planes of the image, giving the image a 3-dimensional depth (Z-stack) at 100× magnification with a Zeiss Cell Observer Yokogawa Spinning Disk confocal microscope (Cell Observed SD, Carl-Zeiss, Oberkochen, Germany) located in the Microscopia Óptica de Luz Gustavo de Oliveira Castro (Plamol) platform in Universidade Federal do Rio de Janeiro. […] On average, thirty cells per field were analyzed in fourteen fields by experiments. […]

[3] = test system: several fungal species; settings: cited from earlier work
Description: (§1) The mechanism of action proposed for Psd1 antifungal activity includes its interaction with specific cell wall/membrane lipid targets, such as C8-desaturated and C9-methylated glucosylceramide (GlcCer), a fungal exclusive GSL, and ergosterol.

[4] = cited from earlier work
Description: as §1

[5] = test system: HSP-2 (human hepatocyte) cells; assay: Cell viability, healthy HSP-2 cells; assay type: cell-based; settings: 6 and 30 µM, 3 h
[6] = test system: recombinant cyclin F-GST; assay: Surface plasmon resonance, Psd1-cyclin F interaction; assay type: binding
Procedure: Surface plasmon resonance (SPR) assays were run on a Biacore X (GE Healthcare Life Sciences, Amersham, UK) apparatus in real time using a CM5 sensor chip at 25 °C. Briefly, CM5 chip activation was performed by injection of 100 µL of a 1:1 mixture of amine coupling kit (750 mg 1-ethyl-3-(3-dimethylaminopropyl) carbodiimide hydrochloride (EDC), 115 mg N-hydroxysuccinimide (NHS), 2 × 10.5 mL 1.0 M ethanolamine-HCl pH 8.5) with a continuous flow of 2 µL/min. Then, 100 µL of […] recombinant cyclin F-GST diluted in 10 mM sodium acetate pH 4.0 buffer was immobilized by amine coupling onto the carboxylate dextran layer of CM5 with the same flow. This was injected with 80 µL of 1 M ethanolamine pH 8.0 to block the remaining binding free sites of the protein. To evaluate the interaction of Psd1 with the cyclin F protein, increasing concentrations of the peptide (10–240 µM) in 100 µL of running buffer (10 mM HEPES, 150 mM NaCl, pH 7.4) were injected using a flow rate of 15 µL/min for 4 min. After the injection ended, the dissociation phase was measured in not less than 300 s. The Psd1-GST-cyclin F interaction curves were subtracted from the respective curves obtained for Psd1-GST to discount possible artifact interactions with GST alone. […]

Psd1: 46-amino acid residue plant defensin isolated from pea seeds, expressed in Pichia pastoris (PDB 1JKZ) (KTCEHLADTYRGVCFTNASCDDHCKNKAHLISGTCHNWKCFCTQNC)
HEK-293 cell viability [1]: no alteration in cell viability
Mitochondria red marker (MitoTracker) ([2]; 30 min): lower mitochondria red marker
Mitochondria red fluorescence (MitoTracker) ([2]; 1 h, probably superposition of SYTOXGreen and MitoTracker signals): brighter red fluorescence signal
Antimicrobial activity against fungi [3]: well-documented antimicrobial activity against several fungal species
Affinity to cholesterol-enriched lipid bilayers [4]: does not show good affinity
HSP-2 cell viability [5]: no alteration in cell viability
SPR association phase, onset of response ([6]; after Psd1 injection, 15 µL/min, 4 min): 80 s
SPR dissociation phase ([6]; after injection ended): full dissociation phase was observed

— publication PMC7219108, “Pisum sativum Defensin 1 Eradicates Mouse Metastatic Lung Nodules from B16F10 Melanoma Cells” (International Journal of Molecular Sciences, 2020)
